Experimental data reported in US20160067247A1, “NOVEL USE” (GlaxoSmithKline Intellectual Property (No.2) Limited, priority 2012, published 2016).
Where two headings read alike, the source gives them in different places.

System: primary human lung fibroblasts differentiated into myofibroblasts
Test: Pro-collagen accumulation (hydroxyproline by HPLC) in supernatants of TGFβ differentiated myofibroblasts
Assay type: cell-based
Conditions: for inhibition at 0.003 µM / inhibition at 0.03 µM: Homo sapiens, Fibroblast
Procedure: Cultured non-IPF cell lines (as described in section 3.1.2) were used to study pro-collagen accumulation in cell culture supernatants, following TGF6 induced myofibroblast differentiation.
Cells were seeded at 100,000 cells per well in 12-well plates (NUNC #150628) in 1 mL complete DMEM and incubated until they reached 100% confluence (4-5 days). Medium was removed from the confluent cells and replaced with 1 mL pre-incubation medium (DMEM containing 4 mM glutamine, 50 μg/mL ascorbic acid, 0.2 mM proline and 0.4% FBS) and incubated for a further 24 hours. Fresh pre-incubation medium was added to 3 wells and immediately collected for analysis in order to determine background level (T0) of hydroxyproline present in the culture medium at the start of the incubation period. […]
Following 24 hours serum starvation, fibroblasts were stimulated with TGFβ1 (1 ng/mL, 24 hours) (R&D #101-B1) to induce myofibroblast differentiation. Subsequently TGFβ1 was either removed or replenished (by complete serum free media change±TGFβ, 1 ng/ml) and 2,4-difluoro-N-{2-(methyloxy)-5-[4-(4-pyridazinyl)-6-quinolinyl]-3 pyridinyl}benzenesulfonamide (final concentration 3 nM or 30 nM, in 0.1% DMSO) added. Dilutions of 2,4-difluoro-N-{2-(methyloxy)-5-[4-(4-pyridazinyl)-6-quinolinyl]-3 pyridinyl}benzenesulfonamide were prepared from a stock of 0.03M by serial 10-fold dilution in 0.1% DMSO and a further 1000-fold dilution. Differentiated myofibroblast cultures were incubated for further 24 and 48 hours at 37° C., 100% humidity, 10% CO2. See FIG. 1 and FIG. 2 for schematic of the experimental regimen.
At the end of each incubation time point cell supernatant was collected and frozen at −80° C. The cell layer was detached by incubating with 250 μL of 0.25% trypsin-EDTA for 5 minutes and a 1 mL suspension was made in DMEM. Cell counts were performed on the cell suspension using Sceptre […] sensor.
The cell supernatants were allowed to thaw at room temperature and proteins were precipitated overnight in 67% (v/v) ethanol at 4° C.
Precipitated proteins were recovered by vacuum filtration onto Durapore polyvinylidene difluoride (PVDF) membrane filters (pore size 0.45 μm) (type HV, Millipore Ltd., UK; # HVLP02500) and the adhering protein was washed twice with 1.5 mL ethanol (67% v/v). Filters with adherent protein were transferred to Pyrex hydrolysis tubes containing 2 mL 6M HCl. Ethanol-insoluble fractions were then hydrolysed at 110° C. for 16 h and the samples were decolourised by mixing with approx. 70 mg of charcoal and filtered onto Durapore membrane filters (pore size 0.65 μm) (type DA, Millipore Ltd., UK; DVPP02500). Aliquots (100 μl) of decolourised hydrolysate were transferred to 1.5 mL centrifuge tubes and evaporated to dryness using speed vac concentrator (Savant SPD 131DDA, Thermo Electron Corporation, Cambridge, UK).
Hydroxyproline accumulation in cell culture supernatants is used as a measure of pro-collagen production. Hydroxyproline represents approximately 12% of the primary sequence of pro-collagen and is essential for the formation of the collagen triple helix. Hydroxproline is not present in significant levels in any other proteins. Levels of hydroxyproline in cell culture hydrolysates was quantified by reverse-phase high performance liquid chromatography (HPLC) following derivitisation with 7-chloro-4-nitrobenzo-oxa-1; 3-diazole (NBD-CI) (Sigma; #17239-0050).
Hydroxyproline Standard: Standard samples of Trans-4-hydroxy-L-proline (PHPRO) Sigma; #H5534) are stored frozen at −20° C. in 10 μL (250 μM) aliquots. A 10 μL aliquot was diluted in 990 μL Milli-Q water (Milli-Q Plus; Millipore Ltd., UK) and used as standard. The final amount of Hydroxyproline (Hyp) standard loaded onto the column was 50 pmoles.
Samples: Milli-Q water (100 μL) was added to the dried aliquot of hydrolysate and left to rehydrate at 4° C. overnight. […]

Q: For `COc1ncc(-c2ccc3nccc(-c4ccnnc4)c3c2)cc1NS(=O)(=O)c1ccc(F)cc1F` [2,4-difluoro-N-{2-(methyloxy)-5-[4-(4-pyridazinyl)-6-quinolinyl]-3-pyridinyl}benzenesulfonamide], which inhibition at 0.003 µM (24 h, line 0110 (A), TGFβ removed, 3 nM, 24 hour, read-out: mean percent inhibition of TGFβ induced pro-collagen production) is on record?
A: The inhibition at 0.003 µM was 31.6%.

Q: And the inhibition at 0.03 µM (24 h, line 0110 (A), TGFβ removed, 30 nM, 24 hour, read-out: mean percent inhibition of TGFβ induced pro-collagen production)?
A: Its inhibition at 0.03 µM is 60.8%.

Q: And the inhibition at 0.003 µM (24 h, line 0610 (B), TGFβ removed, 3 nM, 24 hour, read-out: mean percent inhibition of TGFβ induced pro-collagen production)?
A: Its inhibition at 0.003 µM is 26.2%.

Q: What about the inhibition at 0.03 µM (24 h, line 0610 (B), TGFβ removed, 30 nM, 24 hour, read-out: mean percent inhibition of TGFβ induced pro-collagen production) of the same molecule?
A: Its inhibition at 0.03 µM is 56.8%.

Q: What about the inhibition at 0.003 µM (24 h, line 0610 (B), TGFβ replenished, 3 nM, 24 hour, read-out: mean percent inhibition of TGFβ induced pro-collagen production following replenishment of TGFβ) of the same molecule?
A: The inhibition at 0.003 µM was 29.1%.

Q: What about the inhibition at 0.03 µM (24 h, line 0610 (B), TGFβ replenished, 30 nM, 24 hour, read-out: mean percent inhibition of TGFβ induced pro-collagen production following replenishment of TGFβ) of the same molecule?
A: Its inhibition at 0.03 µM is 45.4%.

Q: And the inhibition at 0.003 µM (48 h, line 0110 (A), TGFβ removed, 3 nM, 48 hour, read-out: mean percent inhibition of TGFβ induced pro-collagen production)?
A: Its inhibition at 0.003 µM is 48.1%.

Q: And the inhibition at 0.03 µM (48 h, line 0110 (A), TGFβ removed, 30 nM, 48 hour, read-out: mean percent inhibition of TGFβ induced pro-collagen production)?
A: Its inhibition at 0.03 µM is 64%.

Q: What about the inhibition at 0.003 µM (48 h, line 0110 (A), TGFβ replenished, 3 nM, 48 hour, read-out: mean percent inhibition of TGFβ induced pro-collagen production following replenishment of TGFβ) of the same molecule?
A: The inhibition at 0.003 µM was 6.3%.

Q: And the inhibition at 0.03 µM (48 h, line 0110 (A), TGFβ replenished, 30 nM, 48 hour, read-out: mean percent inhibition of TGFβ induced pro-collagen production following replenishment of TGFβ)?
A: Its inhibition at 0.03 µM is 35.2%.

Q: And the inhibition at 0.003 µM (48 h, line 0610 (B), TGFβ removed, 3 nM, 48 hour, read-out: mean percent inhibition of TGFβ induced pro-collagen production)?
A: The inhibition at 0.003 µM was 35.6%.

Q: What about the inhibition at 0.03 µM (48 h, line 0610 (B), TGFβ removed, 30 nM, 48 hour, read-out: mean percent inhibition of TGFβ induced pro-collagen production) of the same molecule?
A: The inhibition at 0.03 µM was 59.6%.

Q: What about the inhibition at 0.03 µM (48 h, line 0610 (B), TGFβ replenished, 30 nM, 48 hour, read-out: mean percent inhibition of TGFβ induced pro-collagen production following replenishment of TGFβ) of the same molecule?
A: Its inhibition at 0.03 µM is 37.7%.

Q: And the “mean percent inhibition of TGFβ induced pro-collagen production following replenishment of TGFβ” value (“mean percent inhibition” for short) (line 0110 (A), TGFβ replenished, 3 nM, 24 hour)?
A: Its value is “No inhibition”.

Q: And the “mean percent inhibition” value (line 0110 (A), TGFβ replenished, 30 nM, 24 hour)?
A: The value was “No inhibition”.

Q: And the “mean percent inhibition” value (line 0610 (B), TGFβ replenished, 3 nM, 48 hour)?
A: The value was “No inhibition”.
